Source: US10273230B2, “Substituted phenyl alkanoic acid compounds as GPR120 agonists and uses thereof” (Piramal Enterprises Limited, priority 2014, dated 2019)

biological target: GPR120 receptor (Homo sapiens (Human), UniProt Q5NUL3); experiment: Beta (β) arrestin 2 Interaction Assay (BRET assay), β-galactosidase enzyme fragment complementation; type: cell-based; conditions: CHO-K1 cells stably expressing the GPR120 receptor; β-arrestin recruitment; 2 hours incubation; 30 μM to 1 nM
Procedure: Beta (β) arrestin 2 Interaction Assay (BRET assay) was performed using CHO-K1 cells stably expressing the GPR120 receptor using β-galactosidase (Beta gal) enzyme fragment complementation assay. The measurement of GPR120 activation upon agonist activation was directly provided by β-arrestin recruitment. One day before the β-arrestin 2 assay, CHO-K1 cells were seeded and incubated overnight at 37° C. in a 5% CO2 humidified atmosphere. Cells were treated with the test compounds in the various concentrations ranging from 30 μM to 1 nM and incubated for 2 hours for GPCR (GPR120) activation. Extent of Arrestin recruitment was measured by adding detection reagents for Beta gal complementation assay and was further incubated for 1 hour. The chemi-luminescent signal was detected on Polar Star (BMG Labtech). The dose-response curve was analyzed using Sigma Plot/Graph Pad. The EC50 (concentration of the test compounds where 50% of compounds' maximal activity is observed) values were calculated from the dose-response curve.

Sequence of GPR120 receptor (Q5NUL3 whole entry, the tested form may be a part): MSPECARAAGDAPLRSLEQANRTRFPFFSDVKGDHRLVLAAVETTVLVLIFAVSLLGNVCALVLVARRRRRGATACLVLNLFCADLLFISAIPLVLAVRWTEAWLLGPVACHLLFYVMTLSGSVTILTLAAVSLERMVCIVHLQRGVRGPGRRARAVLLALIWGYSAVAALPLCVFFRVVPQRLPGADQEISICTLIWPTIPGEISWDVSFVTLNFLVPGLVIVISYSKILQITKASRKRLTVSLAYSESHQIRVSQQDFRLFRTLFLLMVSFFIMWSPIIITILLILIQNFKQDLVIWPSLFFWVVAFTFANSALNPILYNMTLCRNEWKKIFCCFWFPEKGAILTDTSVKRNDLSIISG
Sequence of GPR120 receptor (P32121 whole entry partner, the tested form may be a part): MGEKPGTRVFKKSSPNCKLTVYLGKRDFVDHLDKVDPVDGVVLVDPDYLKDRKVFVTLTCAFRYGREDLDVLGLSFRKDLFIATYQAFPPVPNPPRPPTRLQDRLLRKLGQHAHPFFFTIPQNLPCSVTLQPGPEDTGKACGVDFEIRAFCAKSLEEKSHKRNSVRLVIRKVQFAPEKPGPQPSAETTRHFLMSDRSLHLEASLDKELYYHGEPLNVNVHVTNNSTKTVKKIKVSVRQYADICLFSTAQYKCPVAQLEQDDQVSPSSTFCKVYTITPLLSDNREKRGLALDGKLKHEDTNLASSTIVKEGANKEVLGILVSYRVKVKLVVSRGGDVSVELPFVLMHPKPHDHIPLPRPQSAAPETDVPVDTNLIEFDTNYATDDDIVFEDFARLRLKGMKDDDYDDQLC

Row | EC50 | Compound
1 | 0.5 to 5 µM | Cc1ccc(C2=C(COc3ccc(CCCC(=O)O)cc3)CC(F)CC2)cc1 (stereo not shown) [Example 54, 4-(4-((4-fluoro-4′-methyl-3,4,5,6-tetrahydro-[1,1′-biphenyl]-2-yl)methoxy)phenyl) butanoic Acid]
2 | 0.05 to 0.5 µM | O=C(O)CCCc1ccc(OCC2=C(c3ccc4c(c3)CCCC4)CCCC2)cc1 [Example 9, 4-(4-((2-(5,6,7,8-tetrahydronaphthalen-2-yl)cyclohex-1-en-1-yl)methoxy)phenyl) butanoic Acid]
3 | 0.5 to 5 µM | O=C(O)CCCc1ccc(OCC2=C(c3nc4c(s3)CCCC4)CCCC2)cc1 [Example 4, 4-(4-((2-(4,5,6,7-tetrahydrobenzo[d]thiazol-2-yl)cyclohex-1-en-1-yl)methoxy)phenyl) butanoic Acid]
4 | 0.5 to 5 µM | Nc1ncc(C2=C(COc3ccc(CCCC(=O)O)cc3)CCCC2)cc1C(F)(F)F [Example 8, 4-(4-((2-(6-amino-5-(trifluoromethyl)pyridin-3-yl)cyclohex-1-en-1-yl)methoxy)phenyl)butanoic Acid]
5 | 0.5 to 5 µM | N#CC1(c2ccc(C3=C(COc4ccc(CCCC(=O)O)cc4)COCC3)cc2)CC1 [Example 48, 4-(4-((4-(4-(1-cyanocyclopropyl)phenyl)-5,6-dihydro-2H-pyran-3-yl)methoxy)phenyl) butanoic Acid]
6 | 0.5 to 5 µM | COc1ccc(C2=C(COc3ccc(CCCC(=O)O)cc3)CCCC2)cn1 [Example 14, 4-(4-((2-(6-methoxypyridin-3-yl)cyclohex-1-en-1-yl)methoxy)phenyl) butanoic Acid]
7 | 0.05 to 0.5 µM | Cc1ccc(C2=C(COc3ccc(CCCC(=O)O)cc3)CCCC2)cc1 [Example 15, 4-(4-((4′-methyl-3,4,5,6-tetrahydro-[1,1′-biphenyl]-2-yl)methoxy)phenyl) butanoic Acid]
8 | 0.5 to 5 µM | COc1ccc(C2=C(COc3ccc(CCCC(=O)O)cc3)CCCC2)cc1 [Example 6, 4-(4-((4′-methoxy-3,4,5,6-tetrahydro-[1,1′-biphenyl]-2-yl)methoxy)phenyl)butanoic Acid]
9 | 0.5 to 5 µM | O=C(O)CCCc1ccc(OCC2=C(c3ccc4c(c3)CCCC4)CCOC2)cc1 [Example 49, 4-(4-((4-(5,6,7,8-tetrahydronaphthalen-2-yl)-5,6-dihydro-2H-pyran-3-yl)methoxy)phenyl) butanoic Acid]
10 | 0.05 to 0.5 µM | Cc1ccc(C2=C(COc3ccc(CCCC(=O)O)cc3)CCCCC2)cc1 [Example 22, 4-(4-((2-(p-tolyl)cyclohept-1-en-1-yl)methoxy)phenyl)butanoic Acid]
11 | 0.5 to 5 µM | N#CC1(c2ccc(C3=C(COc4ccc(CCCC(=O)O)cc4)CCCC3)cc2)CC1 [Example 1, 4-(4-((4′-(1-cyanocyclopropyl)-3,4,5,6-tetrahydro-[1,1′-biphenyl]-2-yl)methoxy)phenyl) butanoic Acid]
12 | 0.5 to 5 µM | Cc1ccc(OC2=C(COc3ccc(CCCC(=O)O)cc3)CCCC2)cc1 [Example 50, 4-(4-((2-(p-tolyloxy)cyclohex-1-en-1-yl)methoxy)phenyl)butanoic Acid]
13 | 0.05 to 0.5 µM | O=C(O)CCCc1ccc(OCC2=C(c3ccc(C4CC4)cc3)CCCC2)cc1 [Example 7, 4-(4-((4′-cyclopropyl-3,4,5,6-tetrahydro-[1,1′-biphenyl]-2-yl)methoxy)phenyl)butanoic Acid]
14 | 0.5 to 5 µM | N#CC1(c2ccc(C3=C(COc4ccc(CCCC(=O)O)cc4)CCCCC3)cc2)CC1 [Example 21, 4-(4-((2-(4-(1-cyanocyclopropyl)phenyl)cyclohept-1-en-1-yl)methoxy)phenyl) butanoic Acid]
15 | 0.5 to 5 µM | O=C(O)CCCc1ccc(OCC2=C(C3=CCCCC3)CCCC2)cc1 [Example 10, 4-(4-([1,1′-bi(cyclohexane)]-1,1′-dien-2-ylmethoxy)phenyl) butanoic Acid]
16 | 0.5 to 5 µM | CC1CCC(c2ccc(C3(C#N)CC3)cc2)=C(COc2ccc(CCCC(=O)O)cc2)C1 (stereo not shown) [Example 53, 4-(4-((4′-(1-cyanocyclopropyl)-4-methyl-3,4,5,6-tetrahydro-[1,1′-biphenyl]-2-yl)methoxy)phenyl)butanoic Acid]
